This is an account of results in ChEMBL document CHEMBL3399982, “Azachalcones: a new class of potent polyphenol oxidase inhibitors” (Bioorg Med Chem Lett, 2015).

The target of assay [1] is T1, Tyrosinase (Agaricus bisporus) (UniProt O42713).
T1 sequence (whole entry): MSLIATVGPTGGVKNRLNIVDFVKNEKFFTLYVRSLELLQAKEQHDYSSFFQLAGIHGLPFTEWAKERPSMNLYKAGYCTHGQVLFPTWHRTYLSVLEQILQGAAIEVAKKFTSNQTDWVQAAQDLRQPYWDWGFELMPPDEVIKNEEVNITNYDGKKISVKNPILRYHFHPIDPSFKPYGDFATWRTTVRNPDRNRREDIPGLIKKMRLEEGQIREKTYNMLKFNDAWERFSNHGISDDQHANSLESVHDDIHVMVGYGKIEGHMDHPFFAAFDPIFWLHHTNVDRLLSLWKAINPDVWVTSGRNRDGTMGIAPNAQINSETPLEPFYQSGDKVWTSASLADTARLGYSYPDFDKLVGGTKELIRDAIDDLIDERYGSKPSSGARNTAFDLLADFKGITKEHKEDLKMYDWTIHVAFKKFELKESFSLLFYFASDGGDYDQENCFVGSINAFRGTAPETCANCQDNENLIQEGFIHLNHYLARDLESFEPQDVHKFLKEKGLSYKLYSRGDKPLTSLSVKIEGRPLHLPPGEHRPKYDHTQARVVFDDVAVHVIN
Nature of the assay: Inhibition of mushroom tyrosinase assessed as inhibition of L-DOPA oxidase activity. The following applies: concentration not given here.

The target of assay [2] is T2, Tyrosinase (Agaricus bisporus, UniProt O42713).
T2 sequence (O42713 whole entry): T1 sequence (whole entry)
Nature of the assay: Competitive inhibition of mushroom tyrosinase assessed as inhibition of L-DOPA oxidase activity.

In assay [3] the target is T2, Tyrosinase.

The structures appear in SMILES notation. pIC50, pKi: −log10 of the molar value.

`O=C(/C=C/c1ccccn1)c1ccccc1O`: in assay [1], the inhibition (in general, the relative decrease from the control value, in per cent) was 56.8%.
Consider `CN(C)c1ccc(/C=C/C(=O)c2ccccn2)cc1`, for which the inhibition in assay [1] was found to be 39.7%.
On to `O=C(/C=C/c1cccc([N+](=O)[O-])c1)c1ccccc1`, for which the inhibition in assay [1] was 18%.
As for `CN(C)c1ccc(/C=C/C(=O)c2ccccc2O)cc1`, in assay [1], the inhibition amounted to 27.2%.
`O=C(/C=C/c1cccnc1)c1ccccc1O`: the inhibition in assay [1] was 49.3%.
In the case of `O=C(/C=C/c1ccccn1)c1ccccc1`, in assay [1], the inhibition was found to be 34%.
Still for that read-out and setting: the figure for `O=C(/C=C/c1ccc2ccccc2n1)c1ccccc1O` is 8.9%.
With `Oc1ccccc1C(O)/C=C/c1ccncc1` (configuration not stated), the pIC50 (as a rule, −log10 of the IC50, conventionally taken in molar units) at Tyrosinase [2] was 5.64. Besides, the pKi (as a rule, −log10 of the Ki, conventionally taken in molar units) at Tyrosinase [3] was 5.09. Also, the inhibition in assay [1] was 57.2%.
For `Oc1ccccc1C(O)/C=C/c1ccccn1` (configuration not stated) the same measures were 5.77, 5.58 and 80.2%.
`COc1ccc(/C=C/C(=O)c2ccccn2)c(OC)c1`: in assay [1], the inhibition was found to be 42.7%.
With `O=C(/C=C/c1cnc2ccccc2c1)c1ccccc1O`, in assay [1], the inhibition amounted to 12.3%.
Same read-out and setting: the figure for `O=C(/C=C/c1ccncc1)c1ccccc1O` is 39.7%; for `O=C(/C=C/c1cccc([N+](=O)[O-])c1)c1ccccc1O` it is 42.2%.
